Experimental data: patent US20230114123A1, “METHOD OF STIMULATING ASYMMETRIC DIVISION OF SATELLITE STEM CELLS” (Ottawa Hospital Research Institute, priority 2017, published 2023)

System: mdx satellite cells
Experiment: Myog-expressing / myogenic cells on mdx myofibers at 72 h
Type: cell-based, mouse
Conditions: 72 h of mdx myofiber culture, FIG. 4D
Method: EDL fiber Culture and siRNA Transfection. […] Briefly, EDL were carefully dissected and incubated in DMEM with 2% L-glutamine, 4.5% glucose, and 110 mg/mL sodium pyruvate (Gibco) containing 0.2% collagenase I (Sigma) for 45 min. Myofibers were isolated using gentle trituration with a glass pipet. Myofibers were cultured for 36, 42, or 72 h in DMEM containing 20% FBS (Wisent), 1% chick embryo extract (MP Biomedicals), and 2.5 ng/ml bFGF (Cedarlane). For pharmacological inhibition, Lapatinib ditosylate (1 mM in DMSO; Santa
Cruz Biotechnology), PTP1b inhibitor CAS 765317-72-4 (10 mM in DMSO; Santa Cruz Biotechnologies) was added to the culture medium for a final concentration of 1 μM or 10 μM, respectively; equal dilution of DMSO was used as vehicle control.

Substance: EGF: human recombinant EGF protein (Life Technologies), direct activator of the EGFR pathway
- increase in total numbers of myogenic cells: about 14%
